Measurements reported in US20230279495A1, “MOLECULAR SIGNATURES OF RADIATION SENSITIVITY IN TUMORS, AND METHODS OF USE THEREOF” (MEMORIAL SLOAN KETTERING CANCER CENTER, priority 2019, published 2023).

Assays:
[1] = system: DSB repair pathways (NHEJ, MMEJ, HR) at the AAVS1 locus in U2OS cells; assay: Cas9 assay (DSBR-Seq): NHEJ, MMEJ and HR quantified by sequencing repair events at a site-directed DSB; type: cell-based
Protocol: FIG. 4. A-G. E7 expression shifts DNA double strand break repair pathway choice towards MMEJ. (FIG. 4 A) Schematic of DSBR-Seq Assay. The sequencing reads are classified into NHEJ (<5 bp deletion) in (FIG. 4 B), MMEJ (>5 bp deletion with at least 2 bp MH) in (FIG. 4 C) and HR (substitutions from HR donor) in (FIG. 4 D). The DNApk inhibitor […] was used at 1 μM (micromolar) concentration. (FIG. 4 E) cNHEJ measured as a fraction of mutant reads with deletion sizes less than 5 bp. (FIG. 4 F) E7 expression favors mutant reads with deletion sizes larger than 5 bp representing DSBs repaired by MMEJ. (FIG. 4 G) E7 expression results in lower deletion frequency of small deletions near the double strand break. Results represent the mean of 3 independent experiments+/−the standard error of the mean. * represents a p-vale of <0.05.
To measure DSB repair pathway tradeoffs within an endogenous genomic locus, we used the Cas9 endonuclease to create a site-directed DSB at the AAVS1 locus, chosen because of its characterization as a “safe” genomic locus for integration. Cas9 creates a blunt-ended DSB and repair events at the breaksite can be cataloged in a pool of cells using PCR amplification of a region surrounding the breaksite and massively parallel sequencing to quantify repair outcomes. […] NHEJ is measured with sequencing events with small (1-5) base pair deletions whereas MMEJ is quantified using sequencing events with large deletions and microhomology at the breaksite. All three pathways are thereby quantifiable in a single set of sequencing data in a single pool of cells (FIG. 4 A). […]
To quantify NHEJ, MMEJ and HR at an endogenous breaksite, a Cas9 and gRNA expression plasmid and a donor template oligonucleotide was transfected into U2OS cells with and without E7 expressed. A PCR product surrounding the breaksite was sequenced using Illumina-based NGS technology and the pattern of deletions at the breaksite was analyzed and quantified according to methods described within the Example 2 (SI appendix). […]

[2] = molecular target: Rb (retinoblastoma protein, RB1) (human) (UniProt P06400); assay: cell-based or functional assay
UniProt P06400, sequence (P06400 2-928 limits assumed): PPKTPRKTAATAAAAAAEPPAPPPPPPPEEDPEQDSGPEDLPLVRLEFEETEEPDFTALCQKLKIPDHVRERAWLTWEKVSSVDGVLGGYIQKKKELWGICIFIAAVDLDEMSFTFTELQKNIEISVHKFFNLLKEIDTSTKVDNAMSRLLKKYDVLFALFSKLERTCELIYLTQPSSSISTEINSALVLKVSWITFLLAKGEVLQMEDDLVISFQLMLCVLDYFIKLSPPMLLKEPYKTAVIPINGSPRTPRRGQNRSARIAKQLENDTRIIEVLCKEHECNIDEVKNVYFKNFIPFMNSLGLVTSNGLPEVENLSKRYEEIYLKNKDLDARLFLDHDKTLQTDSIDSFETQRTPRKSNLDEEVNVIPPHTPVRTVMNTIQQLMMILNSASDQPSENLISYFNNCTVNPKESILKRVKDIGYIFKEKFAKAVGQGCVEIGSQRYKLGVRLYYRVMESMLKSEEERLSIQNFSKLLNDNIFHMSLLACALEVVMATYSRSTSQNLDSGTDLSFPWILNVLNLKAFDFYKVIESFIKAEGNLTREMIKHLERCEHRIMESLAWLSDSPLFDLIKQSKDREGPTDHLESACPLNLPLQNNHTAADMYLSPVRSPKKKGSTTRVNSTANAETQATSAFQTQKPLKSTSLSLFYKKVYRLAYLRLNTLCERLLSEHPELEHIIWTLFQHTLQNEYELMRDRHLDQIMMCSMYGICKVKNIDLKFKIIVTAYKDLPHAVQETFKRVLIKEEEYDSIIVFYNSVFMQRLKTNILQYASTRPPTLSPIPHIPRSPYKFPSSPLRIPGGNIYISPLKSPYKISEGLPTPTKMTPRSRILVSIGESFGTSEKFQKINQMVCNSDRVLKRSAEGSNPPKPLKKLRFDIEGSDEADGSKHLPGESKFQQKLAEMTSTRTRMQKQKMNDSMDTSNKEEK

Compound	small deletions (1-5 base pairs), reflective of NHEJ ([1]; inhibitor at 1 μM (FIG. 4 B))	larger deletions (>5 bp) with microhomology (≥2 bp) (MMEJ) ([1]; inhibitor at 1 μM (FIG. 4 C))	HR (substitutions from HR donor) ([1]; inhibitor at 1 μM (FIG. 4 D))	MMEJ activity (percentage of GFP positive cells, U2OS EJ2-GFP reporter, against empty vector) [2]	decrease in NHEJ activity (percentage of GFP positive cells, U2OS EJ5-GFP reporter, against empty vector) [2]
O=c1cc(N2CCOCC2)oc2c(-c3cccc4c3sc3ccccc34)cccc12 [Nu7441]	decrease	increase	increase		
HPV16 E7 oncoprotein (from UniProt P03129 1-98)				42%	31%
